In the NIST ThermoML archive (doi:10.1016/j.jct.2011.06.020):

Experiments:
[1] = xn = mol fraction of the nth substance listed; conditions: x2 = 0; for surface tension liquid-gas: Tensiometer with plate; for viscosity / mass density: 101 kPa, Liquid; for viscosity: Capillary tube (Ostwald / Ubbelohde) method; for mass density: Vibrating tube method
[2] = refractive index (Na D-line) (dimensionless); xn = mol fraction of the nth substance listed; conditions: 101 kPa, Liquid, Standard Abbe refractometry, x2 = 0

O [water] + CN1CCNCC1
Conditions	mass density, [1] [kg/m3]	refractive index, [2]	surface tension liquid-gas, [1] [mN/m]	viscosity, [1] [mPa·s]
293.15 K	–	1.333	72.09	–
298.15 K	–	1.333	–	0.894
303.15 K	–	1.332	71.27	0.8
308.15 K	–	1.331	70.44	–
313.15 K	–	1.331	69.66	0.656
318.15 K	–	1.331	68.83	–
323.15 K	–	1.329	67.95	–
325.15 K	988.03	–	–	0.55
328.15 K	–	1.328	–	–
333.15 K	983.2	1.327	66.23	0.47
343.15 K	977.78	–	–	0.409
